Experimental data taken from the supplement of paper PMC11208160.

Test: recombinant barcode read abundance after kanamycin selection (control-corrected) (log10(CPM+1)); higher = more efficient recombination; sequences stand for … in AGTGCAGAGAAAATCGGCCAGTTTTCTCTGCCTGCAGTCCGCATGCCGT…AGATTTATGCAGCGGACTGCCTTTCTCCCAAAGTGATAAACCGGACAGTATCATGGACCGGTTTTCCCGGTAATCCGTATTTGCAAGGTTGGTTTCACT; site = the 11-nt target
Summary of the method: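 In a pooled screen in E. coli, targets were paired with target-binding loops of the IS621 bridge RNA. Each oligo carried a promoter, a target, a barcode and the first 104 bridge RNA bases driven by J23119, and was Gibson-cloned into a vector holding the remaining 73 bp and a T7-inducible recombinase before co-electroporation with a donor plasmid. Duplicate platings went onto chloramphenicol/ampicillin LB agar as the control or onto chloramphenicol/ampicillin/kanamycin with 0.1 mM IPTG. Recombination efficiency is the averaged, control-corrected count per million of barcodes at recombinant junctions, given as log10(CPM+1).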
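Further: IS621 recombinase and bridge RNA in Escherichia coli cells.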

Row | Sequence | recombinant barcode read abundance (log10)
1 | CTAAGCCCTTGGGTTCTAACCTGTTGCGG (site CTAAGCCCTCC) | 1.99
2 | CTAAGCCCTTGGGTTCTAACCTGTTGCGG (site CTGAGCCCTCG) | 0.0837
3 | CTAAGCTCTTGGGTTCTAACCTGTTGCTG (site CTAAGCTCTAA) | 0.259
4 | CTAAGCTCTTGGGTTCTAACCTGTTGCTG (site CTAAGCTCTCA) | 1.25
5 | CTAAGCTCTTGGGTTCTAACCTGTTGCTG (site CTAAGCTCTGA) | 0.23
6 | CTAAGCTCTTGGGTTCTAACCTGTTGCTG (site CTAAGCTCTTA) | 0.349
7 | CTAAGGTCTTGGGTTCTAACCTGTTGCAT (site CTAAGGTCTAA) | 0.688
8 | CTAAGGTCTTGGGTTCTAACCTGTTGCAT (site CTAAGGTCTAC) | 0.176
9 | CTAAGGTCTTGGGTTCTAACCTGTTGCAT (site CTAAGGTCTAG) | 0.214
10 | CTAAGGTCTTGGGTTCTAACCTGTTGCAT (site CTAAGGTCTAT) | 2.33
11 | CTAAGTCCTTGGGTTCTAACCTGTTGCAT (site CTAAATCCTAT) | 0.809
12 | CTAAGTCCTTGGGTTCTAACCTGTTGCAT (site CTAACTCCTAT) | 0.0677
13 | CTAAGTCCTTGGGTTCTAACCTGTTGCAT (site CTAAGTCCTAT) | 1.34
14 | CTAAGTCCTTGGGTTCTAACCTGTTGCAT (site CTAATTCCTAT) | 0.116
15 | CTAATAGCTTGGGTTCTAACCTGTTGCCA (site AGTCCGTCTAT) | 0.186
16 | CTAATAGCTTGGGTTCTAACCTGTTGCCA (site CTAATAGCTTG) | 0.262
17 | CTAATGACTTGGGTTCTAACCTGTTGCAC (site CTAATGACTGT) | 1.43
18 | CTAATGACTTGGGTTCTAACCTGTTGCAC (site CTAATGCCTAT) | 0.227
19 | CTAATGCCTTGGGTTCTAACCTGTTGCAT (site CTAATGACTGT) | 0.0624
20 | CTAATGCCTTGGGTTCTAACCTGTTGCAT (site CTAATGCCTAT) | 0.175
21 | CTAATTACTTGGGTTCTAACCTGTTGCAC (site CTAATTACTGT) | 0.249
22 | CTAATTACTTGGGTTCTAACCTGTTGCAC (site GTAACTACTGT) | 0.114

Row | Sequence | recombinant barcode read abundance (log10)
23 | CTAATTACTTGGGTTCTAACCTGTTGCCT (site CTAATTACTAG) | 0.946
24 | CTAATTACTTGGGTTCTAACCTGTTGCCT (site CTACTTACTAG) | 0.0931
25 | CTAATTACTTGGGTTCTAACCTGTTGCCT (site CTAGTTACTAG) | 0.159
26 | CTAATTACTTGGGTTCTAACCTGTTGCCT (site CTATTTACTAG) | 0.196
27 | CTAATTCCTTGGGTTCTAACCTGTTGCAT (site CTAAATCCTAT) | 0.0881
28 | CTAATTCCTTGGGTTCTAACCTGTTGCAT (site CTAACTCCTAT) | 0.0994
29 | CTAATTCCTTGGGTTCTAACCTGTTGCAT (site CTAAGTCCTAT) | 0.0341
30 | CTAATTCCTTGGGTTCTAACCTGTTGCAT (site CTAATTCCTAT) | 0.252
31 | CTACACTCTTGGGTTCTAACCTGTTGCCT (site CAACACTCTAG) | 1.07
32 | CTACACTCTTGGGTTCTAACCTGTTGCCT (site CCACACTCTAG) | 0.409
33 | CTACACTCTTGGGTTCTAACCTGTTGCCT (site CGACACTCTAG) | 0.28
34 | CTACACTCTTGGGTTCTAACCTGTTGCCT (site CTACACTCTAG) | 2.18
35 | CTACAGCCTTGGGTTCTAACCTGTTGCTT (site CTACAACCTAA) | 0.636
36 | CTACAGCCTTGGGTTCTAACCTGTTGCTT (site CTACACCCTAA) | 0.0559
37 | CTACAGCCTTGGGTTCTAACCTGTTGCTT (site CTACAGCCTAA) | 0.798
38 | CTACAGCCTTGGGTTCTAACCTGTTGCTT (site CTACATCCTAA) | 0.0933
39 | CTACCAACTTGGGTTCTAACCTGTTGCCT (site CTACCAACTAG) | 0.41
40 | CTACCAACTTGGGTTCTAACCTGTTGCCT (site CTACCACCTAG) | 0.0179
41 | CTACCAACTTGGGTTCTAACCTGTTGCCT (site CTACCAGCTAG) | 0.124
42 | CTACCAACTTGGGTTCTAACCTGTTGCCT (site CTACCATCTAG) | 0.0148
43 | CTACCAGCTTGGGTTCTAACCTGTTGCCT (site CTACCAACTAG) | 0.191
44 | CTACCAGCTTGGGTTCTAACCTGTTGCCT (site CTACCACCTAG) | 0.0143

Row | Sequence | recombinant barcode read abundance (log10)
45 | CTACCAGCTTGGGTTCTAACCTGTTGCCT (site CTACCAGCTAG) | 1.17
46 | CTACCAGCTTGGGTTCTAACCTGTTGCCT (site CTACCATCTAG) | 0.0991
47 | CTACCATCTTGGGTTCTAACCTGTTGCCG (site CTACCATCTCG) | 0.255
48 | CTACCATCTTGGGTTCTAACCTGTTGCCG (site CTACCGTCTCC) | 0.157
49 | CTACCCTCTTGGGTTCTAACCTGTTGCAT (site CTAACCTCTAT) | 0.026
50 | CTACCCTCTTGGGTTCTAACCTGTTGCAT (site CTACCCTCTAT) | 2.87
51 | CTACCCTCTTGGGTTCTAACCTGTTGCAT (site CTAGCCTCTAT) | 0.0456
52 | CTACCCTCTTGGGTTCTAACCTGTTGCAT (site CTATCCTCTAT) | 0.413
53 | CTACCTTCTTGGGTTCTAACCTGTTGCCT (site CAACCTTCTAG) | 0.203
54 | CTACCTTCTTGGGTTCTAACCTGTTGCCT (site CTACCTTCTAG) | 1.37
55 | CTACGGACTTGGGTTCTAACCTGTTGCTG (site CTACGAACTCA) | 1.82
56 | CTACGGACTTGGGTTCTAACCTGTTGCTG (site CTACGCACTCA) | 0.206
57 | CTACGGACTTGGGTTCTAACCTGTTGCTG (site CTACGGACTCA) | 2.77
58 | CTACGGACTTGGGTTCTAACCTGTTGCTG (site CTACGTACTCA) | 0.0171
59 | CTACGTACTTGGGTTCTAACCTGTTGCCT (site ATACGTACTAG) | 0.00899
60 | CTACGTACTTGGGTTCTAACCTGTTGCCT (site CTACGTACTAG) | 1.3
61 | CTACGTACTTGGGTTCTAACCTGTTGCCT (site GTACGTACTAG) | 0.0661
62 | CTACGTACTTGGGTTCTAACCTGTTGCCT (site TTACGTACTAG) | 0.0415
63 | CTACGTACTTGGGTTCTAACCTGTTGCTG (site CTACGAACTCA) | 0.0136
64 | CTACGTACTTGGGTTCTAACCTGTTGCTG (site CTACGCACTCA) | 0.138
65 | CTACGTACTTGGGTTCTAACCTGTTGCTG (site CTACGGACTCA) | 0.0671
66 | CTACGTACTTGGGTTCTAACCTGTTGCTG (site CTACGTACTCA) | 1.75

Row | Sequence | recombinant barcode read abundance (log10)
67 | CTACTAACTTGGGTTCTAACCTGTTGCCT (site CTACTAACTAA) | 0.0105
68 | CTACTAACTTGGGTTCTAACCTGTTGCCT (site CTACTAACTAC) | 0.0952
69 | CTACTAACTTGGGTTCTAACCTGTTGCCT (site CTACTAACTAG) | 1.3
70 | CTACTAACTTGGGTTCTAACCTGTTGCCT (site CTACTAACTAT) | 0.182
71 | CTACTAGCTTGGGTTCTAACCTGTTGCAC (site CTACTAGCTAT) | 0.0299
72 | CTACTAGCTTGGGTTCTAACCTGTTGCAC (site CTACTAGCTCT) | 0.433
73 | CTACTAGCTTGGGTTCTAACCTGTTGCAC (site CTACTAGCTGT) | 1.66
74 | CTACTAGCTTGGGTTCTAACCTGTTGCAC (site CTACTAGCTTT) | 0.727
75 | CTACTTACTTGGGTTCTAACCTGTTGCCT (site CTAATTACTAG) | 0.0298
76 | CTACTTACTTGGGTTCTAACCTGTTGCCT (site CTACTTACTAG) | 0.741
77 | CTACTTACTTGGGTTCTAACCTGTTGCCT (site CTAGTTACTAG) | 0
78 | CTACTTACTTGGGTTCTAACCTGTTGCCT (site CTATTTACTAG) | 0.1
79 | CTAGAAGCTTGGGTTCTAACCTGTTGCGG (site CTAGAAGCTCC) | 1.31
80 | CTAGAAGCTTGGGTTCTAACCTGTTGCGG (site CTGGAACCTCC) | 0.401
81 | CTAGACTCTTGGGTTCTAACCTGTTGCTA (site CTAGACTCTAA) | 0.587
82 | CTAGACTCTTGGGTTCTAACCTGTTGCTA (site CTAGACTCTCA) | 0.234
83 | CTAGACTCTTGGGTTCTAACCTGTTGCTA (site CTAGACTCTGA) | 0.117
84 | CTAGACTCTTGGGTTCTAACCTGTTGCTA (site CTAGACTCTTA) | 2.7
85 | CTAGAGTCTTGGGTTCTAACCTGTTGCTT (site CTAGAGTCTAA) | 2.66
86 | CTAGAGTCTTGGGTTCTAACCTGTTGCTT (site CTAGCGTCTAA) | 0.0496
